This is an account of results in patent EP2970215B1, “PYRROLIDINE DERIVATIVES, PHARMACEUTICAL COMPOSITIONS CONTAINING THEM, AND THEIR USE IN THERAPY” (AbbVie Deutschland GmbH & Co. KG, priority 2013, dated 2014).

SMILES strings stand for the structures.

The experiment concerns the target T1, human GlyT1c transporter (Homo sapiens, UniProt P48067).
T1 construct: expressed in transfected cells; host or cells: CHO cells (recombinant; line hGlyT1c_5_CHO is named for the uptake assay)
T1 sequence (P48067 1-706): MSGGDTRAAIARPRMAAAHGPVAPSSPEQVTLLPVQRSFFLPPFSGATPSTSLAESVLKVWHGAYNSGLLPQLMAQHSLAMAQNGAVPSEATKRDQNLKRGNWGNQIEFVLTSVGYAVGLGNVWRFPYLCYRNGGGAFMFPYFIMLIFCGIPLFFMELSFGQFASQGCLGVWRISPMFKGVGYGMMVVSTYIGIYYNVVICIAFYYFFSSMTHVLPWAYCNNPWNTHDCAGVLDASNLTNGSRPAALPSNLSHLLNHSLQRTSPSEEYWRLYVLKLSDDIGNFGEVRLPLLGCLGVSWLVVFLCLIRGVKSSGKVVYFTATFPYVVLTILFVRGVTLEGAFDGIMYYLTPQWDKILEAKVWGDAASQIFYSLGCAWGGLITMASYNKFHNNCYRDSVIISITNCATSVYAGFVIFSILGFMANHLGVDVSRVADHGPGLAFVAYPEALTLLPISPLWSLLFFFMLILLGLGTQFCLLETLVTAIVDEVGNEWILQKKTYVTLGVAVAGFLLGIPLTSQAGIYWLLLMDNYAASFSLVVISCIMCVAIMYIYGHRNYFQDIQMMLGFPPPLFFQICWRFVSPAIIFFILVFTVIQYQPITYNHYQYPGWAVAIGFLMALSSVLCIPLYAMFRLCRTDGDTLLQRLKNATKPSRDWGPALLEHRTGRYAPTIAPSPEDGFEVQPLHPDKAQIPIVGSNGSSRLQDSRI
Nature of the experiment: Radioligand binding assay using recombinant CHO cell membranes expressing human GlyT1. The conditions noted are these: radioligand binding to human GlyT1c transporter-expressing membranes. An excerpt: 2. Radioligand binding assays using recombinant CHO cell membranes expressing human GlyT1: […]

The Ki is a dissociation constant, usually derived from enzyme kinetics or from competition with a known ligand. As to `CCc1cc(N[C@H]2CN(S(=O)(=O)c3cn(C)cn3)C[C@@H]2c2ccc(F)cc2)ncn1` [Example 613, 6-ethyl-N-{(3R,4S)-4-(4-fluorophenyl)-1-[(1-methyl-1H-imidazol-4-yl)sulfonyl]pyrrolidin-3-yl}pyrimidin-4-amine], the Ki is no more than 1000 nM.

In the case of `Cn1cnc(S(=O)(=O)N2C[C@@H](Nc3cc(F)cc(C#N)c3)[C@H](c3ccccc3)C2)c1` (relative stereo) [Example 78, 3-fluoro-5-({trans-1-[(1-methyl-1H-imidazol-4-yl)sulfonyl]-4-phenylpyrrolidin-3-yl}amino)benzonitrile], the Ki is no more than 1000 nM.

As for `CCCCCCN[C@@H]1CN(S(=O)(=O)c2cn(C)nn2)C[C@H]1c1ncccc1F` (relative stereo) [Example 811, Trans-4-(3-fluoropyridin-2-yl)-N-hexyl-1-[(1-methyl-1H-1,2,3-triazol-4-yl)sulfonyl]pyrrolidin-3-amine], the Ki is no more than 100 nM.

Consider `Cn1cnc(S(=O)(=O)N2C[C@H](NCc3cc4cccnc4s3)[C@@H](c3ccccc3)C2)c1` [Example 442, (3R,4S)-1-[(1-methyl-1H-imidazol-4-yl)sulfonyl]-4-phenyl-N-(thieno[2,3-b]pyridin-2-ylmethyl)pyrrolidin-3-amine], for which the Ki is no more than 1000 nM.

For the molecule `Cn1cnc(S(=O)(=O)N2C[C@H](NC(=O)COc3ccc(F)cc3)[C@@H](c3ccc(F)cc3)C2)c1` [Example 644, 2-(4-fluorophenoxy)-N-{(3R,4S)-4-(4-fluorophenyl)-1-[(1-methyl-1H-imidazol-4-yl)sulfonyl]pyrrolidin-3-yl}acetamide], the Ki is no more than 10000 nM.

For `CCCCCCN[C@H]1CN(S(=O)(=O)c2cn(C)cn2)C[C@@H]1C1CCCCO1` (stereo partly drawn) [Example 679, (3R,4S)-N-hexyl-1-[(1-methyl-1H-imidazol-4-yl)sulfonyl]-4-(tetrahydro-2H-pyran-2-yl)pyrrolidin-3-amine], the Ki was no more than 1000 nM.

Take `Cn1cnc(S(=O)(=O)N2C[C@@H](Nc3ccnc(C(F)(F)F)c3)[C@H](c3ccccc3Cl)C2)c1` (relative stereo) [Example 259, N-{trans-4-(2-chlorophenyl)-1-[(1-methyl-1H-imidazol-4-yl)sulfonyl]pyrrolidin-3-yl}-2-(trifluoromethyl)pyridin-4-amine]: the Ki is no more than 1000 nM.

With `Cn1cnc(S(=O)(=O)N2C[C@@H](Nc3ccc(F)c(C(F)(F)F)c3)[C@H](c3ccccc3Cl)C2)c1` (relative stereo) [Example 258, trans-4-(2-chlorophenyl)-N-[4-fluoro-3-(trifluoromethyl)phenyl]-1-[(1-methyl-1H-imidazol-4-yl)sulfonyl]pyrrolidin-3-amine], the Ki was no more than 1000 nM.

`CC(C)CCCCCNC(=O)[C@@H]1CN(S(=O)(=O)c2cn(C)cn2)C[C@H]1c1ccc(F)cc1` (relative stereo) [Example 643, Trans-4-(4-fluorophenyl)-N-(6-methylheptyl)-1-[(1-methyl-1H-imidazol-4-yl)sulfonyl]pyrrolidine-3-carboxamide]: the Ki is no more than 10000 nM.

For `Cn1cnc(S(=O)(=O)N2C[C@@H](Nc3ccccn3)[C@H](c3ccc(F)cc3)C2)c1` (relative stereo) [Example 178, N-{trans-4-(4-fluorophenyl)-1-[(1-methyl-1H-imidazol-4-yl)sulfonyl]pyrrolidin-3-yl}pyridin-2-amine], the Ki is no more than 1000 nM.

As to `Cn1cnc(S(=O)(=O)N2C[C@@H](Nc3cc(Cl)ncn3)[C@H](c3ncccc3F)C2)c1` (relative stereo) [Example 772, 6-chloro-N-{trans-4-(3-fluoropyridin-2-yl)-1-[(1-methyl-1H-imidazol-4-yl)sulfonyl]pyrrolidin-3-yl}pyrimidin-4-amine], the Ki is no more than 10000 nM.

As to `Cn1cnc(S(=O)(=O)N2C[C@@H](Nc3ccc(F)c(F)c3F)[C@H](c3ccc(F)cc3)C2)c1` (relative stereo) [Example 166, trans-4-(4-fluorophenyl)-1-[(1-methyl-1H-imidazol-4-yl)sulfonyl]-N-(2,3,4-trifluorophenyl)pyrrolidin-3-amine], the inhibition constant (Ki) is no more than 1000 nM.

Consider `CCCn1cc([C@H]2CN(S(=O)(=O)c3cn(C)cn3)C[C@@H]2c2ccc(F)cc2)nn1` [Example 640, 4-{(3R,4S)-4-(4-fluorophenyl)-1-[(1-methyl-1H-imidazol-4-yl)sulfonyl]pyrrolidin-3-yl}-1-propyl-1H-1,2,3-triazole], for which the Ki was no more than 1000 nM.

For `Cn1cnc(S(=O)(=O)N2C[C@@H](Nc3cccc(C(F)(F)F)c3)[C@H](c3ccccc3)C2)c1` (relative stereo) [Example 67, trans-1-[(1-methyl-1H-imidazol-4-yl)sulfonyl]-4-phenyl-N-[3-(trifluoromethyl)phenyl]pyrrolidin-3-amine], the Ki was no more than 10 nM.

Regarding `Cn1cnc(S(=O)(=O)N2C[C@@H](Nc3cccc(C(F)(F)F)c3F)[C@H](c3ccc(F)cc3)C2)c1` (relative stereo) [Example 167, trans-4-(4-fluorophenyl)-N-[2-fluoro-3-(trifluoromethyl)phenyl]-1-[(1-methyl-1H-imidazol-4-yl)sulfonyl]pyrrolidin-3-amine], the inhibition constant Ki was no more than 100 nM.

For `Cn1cnc(S(=O)(=O)N2C[C@@H](NCc3ccccc3C(F)(F)F)[C@H](c3ccc(F)cc3)C2)c1` (relative stereo) [Example 265, trans-4-(4-fluorophenyl)-1-[(1-methyl-1H-imidazol-4-yl)sulfonyl]-N-[2-(trifluoromethyl)benzyl]pyrrolidin-3-amine], the inhibition constant (Ki) is no more than 1000 nM.

As to `Cn1cnc(S(=O)(=O)N2C[C@@H](Nc3ccccc3)[C@H](c3cccc(F)c3)C2)c1` (relative stereo) [Example 185, trans-4-(3-fluorophenyl)-1-[(1-methyl-1H-imidazol-4-yl)sulfonyl]-N-phenylpyrrolidin-3-amine], the Ki was no more than 10000 nM.

Regarding `Cn1cnc(S(=O)(=O)N2C[C@H](NCc3cccn4ccnc34)[C@@H](c3ccccc3)C2)c1` [Example 535, (3R,4S)-N-(imidazo[1,2-a]pyridin-8-ylmethyl)-1-[(1-methyl-1H-imidazol-4-yl)sulfonyl]-4-phenylpyrrolidin-3-amine], the Ki is no more than 10000 nM.

Turning to `Cc1c(C#N)cccc1N[C@@H]1CN(S(=O)(=O)c2cn(C)cn2)C[C@H]1c1ccccc1` (relative stereo) [Example 83, 2-methyl-3-({trans-1-[(1-methyl-1H-imidazol-4-yl)sulfonyl]-4-phenylpyrrolidin-3-yl}amino)benzonitrile], the Ki was no more than 1000 nM.

Regarding `CCC(C)(C)CN[C@H]1CN(S(=O)(=O)c2cn(C)cn2)C[C@@H]1c1ccccc1` [Example 450, (3R,4S)-N-(2,2-dimethylbutyl)-1-[(1-methyl-1H-imidazol-4-yl)sulfonyl]-4-phenylpyrrolidin-3-amine], the inhibitory constant (Ki) was no more than 1000 nM.

`Cn1cnc(S(=O)(=O)N2C[C@H](NCc3cc4cc(F)ccc4s3)[C@@H](c3ccccc3)C2)c1` [Example 568, (3R,4S)-N-[(5-fluoro-1-benzothiophen-2-yl)methyl]-1-[(1-methyl-1H-imidazol-4-yl)sulfonyl]-4-phenylpyrrolidin-3-amine]: the Ki was no more than 100 nM.

`Cn1cnc(S(=O)(=O)N2C[C@H](NC(=O)C3(C(F)(F)F)CC3)[C@@H](c3ccc(F)cc3)C2)c1` [Example 375, N-{(3R,4S)-4-(4-fluorophenyl)-1-[(1-methyl-1H-imidazol-4-yl)sulfonyl]pyrrolidin-3-yl}-1-(trifluoromethyl)cyclopropanecarboxamide]: the Ki was no less than 10000 nM.

As for `Cc1cccc(N[C@@H]2CN(S(=O)(=O)c3cn(C)cn3)C[C@H]2C2CCCOC2)c1` (relative stereo) [Example 781, trans-1-[(1-methyl-1H-imidazol-4-yl)sulfonyl]-N-(3-methylphenyl)-4-(tetrahydro-2H-pyran-3-yl)pyrrolidin-3-amine], the inhibition constant Ki is no more than 10000 nM.

For `Cn1cnc(S(=O)(=O)N2C[C@@H](Nc3ccc(Cl)c(OC(F)(F)F)c3)[C@H](c3ccccc3)C2)c1` (relative stereo) [Example 299, trans-N-[4-chloro-3-(trifluoromethoxy)phenyl]-1-[(1-methyl-1H-imidazol-4-yl)sulfonyl]-4-phenylpyrrolidin-3-amine], the Ki is no more than 1000 nM.

Take `Cc1ccc(CN[C@H]2CN(S(=O)(=O)c3cn(C)cn3)C[C@@H]2c2ccccc2)nc1` [Example 536, (3R,4S)-1-[(1-methyl-1H-imidazol-4-yl)sulfonyl]-N-[(5-methylpyridin-2-yl)methyl]-4-phenylpyrrolidin-3-amine]: the Ki was no more than 1000 nM.

For the molecule `CCOc1cc(N[C@H]2CN(S(=O)(=O)c3cn(C)cn3)C[C@@H]2c2ccccc2)ncn1` [Example 620, 6-ethoxy-N-{(3R,4S)-1-[(1-methyl-1H-imidazol-4-yl)sulfonyl]-4-phenylpyrrolidin-3-yl}pyrimidin-4-amine], the Ki is no more than 1000 nM.

In the case of `CC(C)(C)OC(=O)N[C@@H]1CN(S(=O)(=O)c2ccccc2C#N)C[C@H]1c1ccc(F)cc1` (relative stereo) [Example 524, tert-butyl [trans-1-[(2-cyanophenyl)sulfonyl]-4-(4-fluorophenyl)pyrrolidin-3-yl]carbamate], the Ki was no more than 10000 nM.
